Data reported in patent US9169260B2 (MERCK SHARP & DOHME CORP., priority 2011, dated 2015).
pIC50: −log10 of the molar value.

These molecules were tested against GST tagged IRAK-4 (Homo sapiens (Human), UniProt Q9NWZ3) (assay: IRAK-4 Kinase Assay (IMAP fluorescence polarization)). Details: 100 μM ATP, 30 minutes at 25° C.
Format: biochemical
Summary of the method: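 Activity was read by IMAP fluorescence polarization, where phosphopeptide binding to M(III) nanoparticles raises FP. The 30-minute, 25° C reaction used 100 μM ATP, 100 nM RP7030 substrate and 0.5 nM GST-IRAK-4 in pH 7.2 Tris buffer with MgCl2, DTT and Tween 20.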

GST tagged IRAK-4, sequence (Q9NWZ3 whole entry): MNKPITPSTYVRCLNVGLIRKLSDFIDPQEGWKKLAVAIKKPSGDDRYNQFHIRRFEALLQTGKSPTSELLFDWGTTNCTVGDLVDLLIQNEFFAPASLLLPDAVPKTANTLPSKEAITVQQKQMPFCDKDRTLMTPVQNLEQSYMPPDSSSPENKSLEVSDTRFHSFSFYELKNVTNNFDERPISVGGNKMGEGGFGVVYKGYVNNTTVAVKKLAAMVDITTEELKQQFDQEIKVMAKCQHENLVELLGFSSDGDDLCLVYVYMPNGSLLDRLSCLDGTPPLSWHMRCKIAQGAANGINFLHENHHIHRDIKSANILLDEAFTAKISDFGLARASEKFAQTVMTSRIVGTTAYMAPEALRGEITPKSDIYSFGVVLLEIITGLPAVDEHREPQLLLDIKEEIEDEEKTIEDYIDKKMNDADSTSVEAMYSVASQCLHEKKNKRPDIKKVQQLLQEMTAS

pIC50	SMILES
> 7.00	O=C(Nc1cc(C2CNC2)nn1-c1ccc(C2CC2)cc1F)c1cnn2cccnc12 [Example 87, N-(3-(azetidin-3-yl)-1-(4-cyclopropyl-2-fluorophenyl)-1H-pyrazol-5-yl)pyrazolo[1,5-a]pyrimidine-3-carboxamide]
> 7.00	CC(C)N1CC(c2cc(NC(=O)c3cnn4cccnc34)n(-c3ccc(C4CC4)cc3F)n2)C1 [Example 88, N-(1-(4-cyclopropyl-2-fluorophenyl)-3-(1-isopropylazetidin-3-yl)-1H-pyrazol-5-yl)pyrazolo[1,5-a]pyrimidine-3-carboxamide]
> 7.00	O=C(Nc1cc(C2CN(C3CCC3)C2)nn1-c1ccc(C2CC2)cc1F)c1cnn2cccnc12 [Example 89, N-(3-(1-cyclobutylazetidin-3-yl)-1-(4-cyclopropyl-2-fluorophenyl)-1H-pyrazol-5-yl)pyrazolo[1,5-a]pyrimidine-3-carboxamide]
> 7.00	Cc1ccc(-n2nc(C3CCC(C(=O)N(C)C)CC3)cc2NC(=O)c2cnn3cccnc23)cc1 (centres unmarked) [Example 96, N-(3-(4-(dimethylcarbamoyl)cyclohexyl)-1-(p-tolyl)-1H-pyrazol-5-yl)pyrazolo[1,5-a]pyrimidine-3-carboxamide]
> 7.00	Cc1ccc(-n2nc(-c3ccc(S(N)(=O)=O)cc3)cc2NC(=O)c2cnn3cccnc23)cc1 [Example 99, N-(3-(4-sulfamoylphenyl)-1-(p-tolyl)-1H-pyrazol-5-yl)pyrazolo[1,5-a]pyrimidine-3-carboxamide]
> 7.00	CNS(=O)(=O)c1ccc(-c2cc(NC(=O)c3cnn4cccnc34)n(-c3ccc(C)cc3F)n2)cc1 [Example 100, N-(1-(2-fluoro-4-methylphenyl)-3-(4-(N-methylsulfamoyl)phenyl)-1H-pyrazol-5-yl)pyrazolo[1,5-a]pyrimidine-3-carboxamide]
> 7.00	CNS(=O)(=O)c1ccc(-c2cc(NC(=O)c3cnn4cccnc34)n(-c3ccc(C4CC4)cc3F)n2)cc1 [Example 101, N-(1-(4-cyclopropyl-2-fluorophenyl)-3-(4-(N-methylsulfamoyl)phenyl)-1H-pyrazol-5-yl)pyrazolo[1,5-a]pyrimidine-3-carboxamide]
> 7.00	Cc1ccc(-n2nc(-c3ccc(NS(C)(=O)=O)cc3)cc2NC(=O)c2cnn3cccnc23)cc1 [Example 103, N-(3-(4-(methylsulfonamido)phenyl)-1-(p-tolyl)-1H-pyrazol-5-yl)pyrazolo[1,5-a]pyrimidine-3-carboxamide]
> 7.00	COc1ccc(-n2nc(C3CCNCC3)cc2NC(=O)c2cnn3cc(C(N)=O)cnc23)cc1 [Example 105, N3-(1-(4-methoxyphenyl)-3-(piperidin-4-yl)-1H-pyrazol-5-yl)pyrazolo[1,5-a]pyrimidine-3,6-dicarboxamide]
> 7.00	Cc1ccc(-n2nc(C3CCN(C(C)C)CC3)cc2NC(=O)c2cnn3cc(Br)cnc23)cc1 [Example 108, 6-bromo-N-(3-(1-isopropylpiperidin-4-yl)-1-(p-tolyl)-1H-pyrazol-5-yl)pyrazolo[1,5-a]pyrimidine-3-carboxamide]
> 7.00	Cc1ccc(-n2nc(C3CCN(C4CCCOC4)CC3)cc2NC(=O)c2cnn3cc(Br)cnc23)cc1 (centres unmarked) [Example 109, 6-bromo-N-(3-(1-(tetrahydro-2H-pyran-3-yl)piperidin-4-yl)-1-(p-tolyl)-1H-pyrazol-5-yl)pyrazolo[1,5-a]pyrimidine-3-carboxamide]
> 7.00	Cc1ccc(-n2nc(C3CCN(C4CCOCC4)CC3)cc2NC(=O)c2cnn3cc(Br)cnc23)cc1 [Example 110, 6-bromo-N-(3-(1-(tetrahydro-2H-pyran-4-yl)piperidin-4-yl)-1-(p-tolyl)-1H-pyrazol-5-yl)pyrazolo[1,5-a]pyrimidine-3-carboxamide]
> 7.00	Cc1ccc(-n2nc(C3CCN(C(=O)CCN(C)C)CC3)cc2NC(=O)c2cnn3cc(Br)cnc23)cc1 [Example 113, 6-bromo-N-(3-(1-(3-(dimethylamino)propanoyl)piperidin-4-yl)-1-(p-tolyl)-1H-pyrazol-5-yl)pyrazolo[1,5-a]pyrimidine-3-carboxamide]
> 7.00	CCN(CC)CCC(=O)N1CCC(c2cc(NC(=O)c3cnn4cc(Br)cnc34)n(-c3ccc(C)cc3)n2)CC1 [Example 114, 6-bromo-N-(3-(1-(3-(diethylamino)propanoyl)piperidin-4-yl)-1-(p-tolyl)-1H-pyrazol-5-yl)pyrazolo[1,5-a]pyrimidine-3-carboxamide]
> 7.00	Cc1ccc(-n2nc(C3CCN(CC(N)=O)CC3)cc2NC(=O)c2cnn3cc(Br)cnc23)cc1 [Example 115, N-(3-(1-(2-amino-2-oxoethyl)piperidin-4-yl)-1-(p-tolyl)-1H-pyrazol-5-yl)-6-bromopyrazolo[1,5-a]pyrimidine-3-carboxamide]
> 7.00	Cc1ccc(-n2nc(C3CCN(C(=O)C4(O)CCC4)CC3)cc2NC(=O)c2cnn3cc(Br)cnc23)cc1 [Example 116, 6-bromo-N-(3-(1-(1-hydroxycyclobutanecarbonyl)piperidin-4-yl)-1-(p-tolyl)-1H-pyrazol-5-yl)pyrazolo[1,5-a]pyrimidine-3-carboxamide]

Same assay, conditions: 100 μM ATP, 30 minutes at 25° C.; μM

IC50 [µM]	SMILES
< 1	Cc1ccc(-n2nc(C3CN(S(=O)(=O)C4CCCC4)C3)cc2NC(=O)c2cnn3cccnc23)cc1 [Example 85, N-(3-(1-(cyclopentylsulfonyl)azetidin-3-yl)-1-(p-tolyl)-1H-pyrazol-5-yl)pyrazolo[1,5-a]pyrimidine-3-carboxamide]
< 1	COCCS(=O)(=O)N1CC(c2cc(NC(=O)c3cnn4cccnc34)n(-c3ccc(C)cc3)n2)C1 [Example 86, N-(3-(1-((2-methoxyethyl)sulfonyl)azetidin-3-yl)-1-(p-tolyl)-1H-pyrazol-5-yl)pyrazolo[1,5-a]pyrimidine-3-carboxamide]
< 1	CC(=O)c1ccc(-n2nc(C3CCN(S(C)(=O)=O)CC3)cc2NC(=O)c2cnn3cccnc23)cc1 [Example 90, N-(1-(4-acetylphenyl)-3-(1-(methylsulfonyl)piperidin-4-yl)-1H-pyrazol-5-yl)pyrazolo[1,5-a]pyrimidine-3-carboxamide]
< 1	Cc1ccc(-n2nc(C3(C)CCNCC3)cc2NC(=O)c2cnn3cccnc23)cc1 [Example 91, N-(3-(4-methylpiperidin-4-yl)-1-(p-tolyl)-1H-pyrazol-5-yl)pyrazolo[1,5-a]pyrimidine-3-carboxamide]
> 1	Cc1ccc(-n2nc(C3(C)CCN(S(C)(=O)=O)CC3)cc2NC(=O)c2cnn3cccnc23)cc1 [Example 92, N-(3-(4-methyl-1-(methylsulfonyl)piperidin-4-yl)-1-(p-tolyl)-1H-pyrazol-5-yl)pyrazolo[1,5-a]pyrimidine-3-carboxamide]
> 1	COC(=O)C1CCC(c2cc(NC(=O)c3cnn4cccnc34)n(-c3ccc(C)cc3)n2)CC1 (centres unmarked) [Example 93, methyl 4-(5-(pyrazolo[1,5-a]pyrimidine-3-carboxamido)-1-(p-tolyl)-1H-pyrazol-3-yl)cyclohexanecarboxylate]
> 1	Cc1ccc(-n2nc(C3CCC(C(=O)O)CC3)cc2NC(=O)c2cnn3cccnc23)cc1 (centres unmarked) [Example 94, 4-(5-(pyrazolo[1,5-a]pyrimidine-3-carboxamido)-1-(p-tolyl)-1H-pyrazol-3-yl)cyclohexanecarboxylic acid]
< 1	Cc1ccc(-n2nc(C3CCC(C(N)=O)CC3)cc2NC(=O)c2cnn3cccnc23)cc1 (centres unmarked) [Example 95, N-(3-(4-carbamoylcyclohexyl)-1-(p-tolyl)-1H-pyrazol-5-yl)pyrazolo[1,5-a]pyrimidine-3-carboxamide]
> 1	Cc1ccc(-n2nc(C3CCC(C(F)(F)F)CC3)cc2NC(=O)c2cnn3cccnc23)cc1 (centres unmarked) [Example 97, N-(1-(p-tolyl)-3-(4-(trifluoromethyl)cyclohexyl)-1H-pyrazol-5-yl)pyrazolo[1,5-a]pyrimidine-3-carboxamide]
< 1	Cc1ccc(-n2nc(C3CCS(=O)(=O)CC3)cc2NC(=O)c2cnn3cccnc23)cc1 [Example 98, N-(3-(1,1-dioxidotetrahydro-2H-thiopyran-4-yl)-1-(p-tolyl)-1H-pyrazol-5-yl)pyrazolo[1,5-a]pyrimidine-3-carboxamide]
< 1	Cc1ccc(-n2nc(-c3ccc(N)cc3)cc2NC(=O)c2cnn3cccnc23)cc1 [Example 102, N-(3-(4-aminophenyl)-1-(p-tolyl)-1H-pyrazol-5-yl)pyrazolo[1,5-a]pyrimidine-3-carboxamide]
< 1	COc1ccc(-n2nc(C3CCNCC3)cc2NC(=O)c2cnn3cc(Br)cnc23)cc1 [Example 104, 6-bromo-N-(1-(4-methoxyphenyl)-3-(piperidin-4-yl)-1H-pyrazol-5-yl)pyrazolo[1,5-a]pyrimidine-3-carboxamide]
< 1	Cc1ccc(-n2nc(C3CCNCC3)cc2NC(=O)c2cnn3cc(Br)cnc23)cc1 [Example 107, 6-bromo-N-(3-(piperidin-4-yl)-1-(p-tolyl)-1H-pyrazol-5-yl)pyrazolo[1,5-a]pyrimidine-3-carboxamide]
< 1	Cc1ccc(-n2nc(C3CCN(C)CC3)cc2NC(=O)c2cnn3cc(Br)cnc23)cc1 [Example 111, 6-bromo-N-(3-(1-methylpiperidin-4-yl)-1-(p-tolyl)-1H-pyrazol-5-yl)pyrazolo[1,5-a]pyrimidine-3-carboxamide]
< 1	Cc1ccc(-n2nc(C3CCN(C(=O)CO)CC3)cc2NC(=O)c2cnn3cc(Br)cnc23)cc1 [Example 112, 6-bromo-N-(3-(1-(2-hydroxyacetyl)piperidin-4-yl)-1-(p-tolyl)-1H-pyrazol-5-yl)pyrazolo[1,5-a]pyrimidine-3-carboxamide]
< 1	Cc1ccc(-n2nc(C3CCN(C(=O)C4CN(C)CCO4)CC3)cc2NC(=O)c2cnn3cc(Br)cnc23)cc1 (centres unmarked) [Example 117, 6-bromo-N-(3-(1-(4-methylmorpholine-2-carbonyl)piperidin-4-yl)-1-(p-tolyl)-1H-pyrazol-5-yl)pyrazolo[1,5-a]pyrimidine-3-carboxamide]
